Reference: US7087721B2, “Compositions, kits and treating methods for alteration cell-cell adhesion, transport, or permeation properties of tissues” (priority 2003, dated 2006)
Entries after “also recorded” stand apart in the source; their conditions may differ.

How the values were obtained:
Assay type in all cases: cell-based, human
[1] = test system: TMG-expressed A2058 cells; assay: Carbohydrate specificity for TM-mediated cell adhesion, TMG cells; details: 37° C. overnight, light microscopy
Protocol: A variety of simple carbohydrate (D-mannose, D-galactose, D-lactose, D-glucose, D-xylose), heparin, LMW heparin, chondroitin sulfate A, chondroitin sulfate B, and chondroitin sulfate C were tested to determine their ability to block cell-cell adhesion of the TMG cells. In these experiments, the carbohydrate to be tested was added to the cell monolayer to compare its ability to compete with the TMG. The plates were then incubated at 37° C. for overnight and examined by light microscopy (Leica Model DM IL).
FIG. 8. Effect of different carbohydrates on the cell adhesion of TMG cells. TMG-expressed A2058 cells were challenged with 20 mg/ml of monosaccharides (including D-glucose, D-galactose, D-lactose, D-xylose, D-mannose), 20 mg/ml of chondroitin sulfate A, B, C, or 15 mg/ml of heparin, LMW heparin. Following incubation at 37° C. overnight, images were obtained. Each image is representative of the observations from three separate experiments.

[2] = test system: A2058TMG cells; assay: Calcium-switch method, A2058TMG cells; details: 4 mM EGTA, 40 min
Protocol: (§1) Cells were grown overnight on glass coverslips at a constant density (5×10^4 cells/well) in 24 well culture plates. The cells were serum-starved for 8 h and Ca^2+ was removed by incubation with DMEM medium containing 4 mM ethyleneglycol-bis-(Amino-Ethyl-Ether) N,N,N′,N′-tetraacetic acid (EGTA) and 1 mM MgCl2 at 37° C. After 1 h, the DMEM medium containing 1.8 mM Ca^2+ was added to replace the Ca^2+-free medium. In control experiments, cells received fresh media in the absence of EGTA. In selected experiments, 10 μg/ml of anti-TM lectin-like antibody, 10 μg/ml of isotype-specific control antibody or anti-E-cadherin antibody (20 μg/ml) was added to the Ca^2+-containing medium.
(§2) FIG. 6. TM participates in Ca^2+-dependent cell-cell adhesion. A2058TMG (A–E) and HaCaT cells (F–J) were left untreated (A, F) or treated with 4 mM EGTA for 40 min (B–E, G–J). The EGTA containing medium was then replaced with Ca^2+-containing medium in the presence of 10 μg/ml control IgG (C, H) for 1 h. After treatment with EGTA, cells were incubated for 1 h in medium containing 1.8 mM Ca^2+ and 10 ? g/ml function-blocking anti-lectin-like antibody (D, I), or anti-E-cadherin antibody (E, J). Green fluorescence shown in panels A to E is the GFP-tagged TM proteins, whereas panels F to J indicate the TM distribution by anti-EGF-like domain antibody detected with tetramethylrhodamine-conjugated anti-mouse antibody. […]

[3] = test system: HaCaT cells; assay: Calcium-switch method, HaCaT cells; details: 4 mM EGTA, 40 min
Protocol: as §1, §2

Row | Molecule | ability to disperse the close clustering morphology of TMG culture cells ([1]; 20 mg/ml) | also measured
1 | O=C[C@H](O)[C@@H](O)[C@@H](O)[C@H](O)CO [D-galactose] | only mannose was found to be effective | –
2 | O=C[C@H](O)[C@@H](O)[C@H](O)[C@H](O)CO [D-glucose] | only mannose was found to be effective | –
3 | OC[C@H]1O[C@@H](O[C@H]2[C@H](O)[C@@H](O)C(O)O[C@@H]2CO)[C@H](O)[C@@H](O)[C@H]1O (stereo partly drawn) [D-lactose] | only mannose was found to be effective | –
4 | O=C[C@@H](O)[C@@H](O)[C@H](O)[C@H](O)CO [D-mannose] | effective in inducing of cell dispersion; also recorded: highest dispersing effect | –
5 | O=C[C@H](O)[C@@H](O)[C@H](O)CO [D-xylose] | only mannose was found to be effective | –
6 | O=C(O)CN(CCOCCOCCN(CC(=O)O)CC(=O)O)CC(=O)O [EGTA, ethyleneglycol-bis-(Amino-Ethyl-Ether) N,N,N′,N′-tetraacetic acid] | – | cell-to-cell contacts in EGTA-containing medium [2]: disrupted; cell-to-cell contacts in EGTA-containing medium [3]: disrupted
7 | chondroitin 4-sulfate [chondroitin sulfate A] | could induce cell dispersion | –
8 | chondroitin 6-sulfate [chondroitin sulfate C] | could induce cell dispersion | –
9 | dermatan sulfate [chondroitin sulfate B] | no effect | –
10 | heparin | – | ability to disperse the close clustering morphology of TMG culture cells ([1]; 15 mg/ml): minor inhibitory effect on the cell adhesion
